The results in this text go back to patent US20260216195A1, “MUTANT-SELECTIVE EGFR INHIBITORS” (Dana-Farber Cancer Institute, Inc., priority 2023, published 2026).

For assay [1], the target named is EGFR mutant L858R Ba/F3 cells (Homo sapiens, UniProt P00533, L858R, cells depend on it). Kind of assay: Ba/F3 cell proliferation (Cell Titer Glo), EGFR L858R. Type of assay: cell-based, murine. The following applies: 72 hours, read-out: BaF3 cell L858R IC50. The text has this: (§1) The EGFR mutant L858R and L858R/T790M Ba/F3 cells have been previously described (Zhou, W., et al. Nature 462, 2009, 1070-1074). All cell lines were maintained in RPMI 1640 (Cellgro; Mediatech Inc., Herndon, CA) supplemented with 10% FBS, 100 units/mL penicillin, 100 units/mL streptomycin. The EGFR 1941R mutation was introduced via site directed mutagenesis using the Quick Change Site-Directed Mutagenesis kit (Stratagene; La Jolla, CA) according to the manufacturer's instructions. All constructs were confirmed by DNA sequencing. The constructs were shuttled into the retroviral vector JP1540 using the Cre-recombination system (Agilent Technologies, Santa Clara, CA). Ba/F3 cells were then infected with retrovirus per standard protocols, as described previously (Zhou, et al, Nature 2009). Stable clones were obtained by selection in puromycin (2 μg/ml).
EGFR mutant L858R Ba/F3 cells, sequence (P00533 whole entry L858R): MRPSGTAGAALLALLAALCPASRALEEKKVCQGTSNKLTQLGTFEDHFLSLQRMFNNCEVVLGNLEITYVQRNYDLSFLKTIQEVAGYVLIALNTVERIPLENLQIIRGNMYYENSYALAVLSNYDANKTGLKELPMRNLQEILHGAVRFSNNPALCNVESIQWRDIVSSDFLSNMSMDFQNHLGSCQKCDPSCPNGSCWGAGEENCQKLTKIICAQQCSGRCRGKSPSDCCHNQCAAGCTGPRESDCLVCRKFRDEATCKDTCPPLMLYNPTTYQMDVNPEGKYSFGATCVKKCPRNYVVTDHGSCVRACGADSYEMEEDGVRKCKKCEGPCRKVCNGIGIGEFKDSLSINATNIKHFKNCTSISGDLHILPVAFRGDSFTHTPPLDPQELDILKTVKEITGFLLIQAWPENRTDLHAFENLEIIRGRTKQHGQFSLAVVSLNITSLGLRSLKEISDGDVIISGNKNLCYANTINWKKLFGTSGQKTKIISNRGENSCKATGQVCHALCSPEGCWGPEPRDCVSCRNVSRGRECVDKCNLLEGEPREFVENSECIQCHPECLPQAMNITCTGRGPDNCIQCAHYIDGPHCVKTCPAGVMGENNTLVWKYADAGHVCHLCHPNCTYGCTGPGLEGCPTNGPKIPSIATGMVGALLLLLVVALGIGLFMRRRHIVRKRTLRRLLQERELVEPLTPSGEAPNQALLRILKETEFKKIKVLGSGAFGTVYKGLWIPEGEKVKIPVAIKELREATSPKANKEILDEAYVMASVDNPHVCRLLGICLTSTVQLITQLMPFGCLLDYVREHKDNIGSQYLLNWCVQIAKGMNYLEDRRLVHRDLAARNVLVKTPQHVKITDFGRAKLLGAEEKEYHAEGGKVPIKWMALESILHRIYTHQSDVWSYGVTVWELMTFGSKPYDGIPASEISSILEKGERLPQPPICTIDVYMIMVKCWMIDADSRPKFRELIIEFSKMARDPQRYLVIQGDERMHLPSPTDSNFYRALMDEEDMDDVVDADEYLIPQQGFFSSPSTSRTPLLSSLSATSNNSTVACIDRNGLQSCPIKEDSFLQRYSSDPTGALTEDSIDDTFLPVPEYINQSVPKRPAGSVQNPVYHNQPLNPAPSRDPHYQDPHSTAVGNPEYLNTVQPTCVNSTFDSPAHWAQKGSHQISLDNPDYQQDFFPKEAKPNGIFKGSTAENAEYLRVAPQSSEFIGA
(§2) Growth and inhibition of growth was assessed by the Cell Titer Glo assay (Promega, Madison, WI) and was performed according to the manufacturer's instructions. The Cell Titer Glo assay is a luminescence-based method used to determine the number of viable cells based on quantitation of the ATP present, which is directly proportional to the amount of metabolically active cells present. Ba/F3 cells of different EGFR genotypes were exposed to the compounds disclosed herein for 72 hours and the number of cells used per experiment was determined empirically as has been previously established (Zhou, et al., Nature 2009). All experimental points were set up in triplicates in 384-well plates and all experiments were repeated at least three times. […] The curves were fitted using a non-linear regression model with a sigmoidal dose response.

The next assay concerns the target EGFR L858R (Homo sapiens, UniProt P00533, L858R). Kind of assay: HTRF-based EGFR biochemical assay, L858R enzyme. The following applies: L858R 0.1 nM enzyme, 100 μM ATP, 30 min preincubation, read-out: LR enzyme IC50. The procedure:
(§3) EGFR biochemical activity measurements were carried out using the homogeneous time-resolved fluorescence (HTRF) assay (Cisbio). Inhibitors and DMSO normalizations were first dispensed to empty black low-volume 384-well plates (Corning) with D300 digital liquid dispenser (HP). All reactions were carried out at room temperature and solutions were added to plates with a Multidrop Combi Reagent Dispenser (ThermoFisher). The reaction mixture (10 μL final volume) contained 1 μM tyrosine kinase peptide-biotin substrate and mutant EGFR in a reaction buffer (50 mM HEPES pH 7.0, 5 mM MgCl2,1 mM MnCl2, 0.01% BSA, 2 mM TCEP, 0.1 mM NaVO4). Enzyme concentrations were adjusted to accommodate varying kinase activities (L858R 0.1 nM, L858R/T790M 0.02 nM). Enzyme reaction solution (2× concentrations, 5 μL) was added to 384-well plates containing compounds and incubated for 30 mins. Enzyme reactions were initiated with the addition of 5 μL of ATP to a final concentration of 100 μM and reacted for 20 mins. Reactions were quenched with the addition of 10 μL of phospho-tyrosine antibody-Europium(III) cryptate (1-to-180 volume ratio) and Streptavidin-XL665 (46.7 nM) in EDTA-containing detection buffer, then incubated at room temperature for 1 hour, and read with a PHERAstar plate reader (excitation=337 nm, emission=620 nm and 665 nm). IC50 values were determined by inhibition curves (11-point curves from 1.0 μM to 0.130 nM or 23-point curves from 1.0 μM to […]) in triplicate with non-linear least squares fit in GraphPad Prism 7.0d. The data obtained are shown in Table 2 below where “−” is indicative of an IC50 value of >5 nM “+” is indicative of an IC50 value of <5 nM, “++” is indicative of an IC50 value of <1 nM, and “+++” is indicative of an IC50 value of <0.5 nM.

Another assay addresses EGFR L858R/T790M (Homo sapiens, UniProt P00533, L858R/T790M). Kind of assay: HTRF-based EGFR biochemical assay, L858R/T790M enzyme. To be noted: L858R/T790M 0.02 nM enzyme, 100 μM ATP, 30 min preincubation, read-out: LRTM enzyme IC50. Here is the method:
as §3

Assay [2] addresses EGFR mutant L858R/T790M Ba/F3 cells (Homo sapiens, UniProt P00533, T790M/L858R, cells depend on it). Kind of assay: Ba/F3 cell proliferation (Cell Titer Glo), EGFR L858R/T790M. Type of assay: cell-based, murine. To be noted: 72 hours, read-out: BaF3 cell L858R/T790M.
Description: as §1, §2

The structures appear in SMILES notation.

EGFR mutant L858R/T790M Ba/F3 cells, sequence (P00533 whole entry T790M/L858R): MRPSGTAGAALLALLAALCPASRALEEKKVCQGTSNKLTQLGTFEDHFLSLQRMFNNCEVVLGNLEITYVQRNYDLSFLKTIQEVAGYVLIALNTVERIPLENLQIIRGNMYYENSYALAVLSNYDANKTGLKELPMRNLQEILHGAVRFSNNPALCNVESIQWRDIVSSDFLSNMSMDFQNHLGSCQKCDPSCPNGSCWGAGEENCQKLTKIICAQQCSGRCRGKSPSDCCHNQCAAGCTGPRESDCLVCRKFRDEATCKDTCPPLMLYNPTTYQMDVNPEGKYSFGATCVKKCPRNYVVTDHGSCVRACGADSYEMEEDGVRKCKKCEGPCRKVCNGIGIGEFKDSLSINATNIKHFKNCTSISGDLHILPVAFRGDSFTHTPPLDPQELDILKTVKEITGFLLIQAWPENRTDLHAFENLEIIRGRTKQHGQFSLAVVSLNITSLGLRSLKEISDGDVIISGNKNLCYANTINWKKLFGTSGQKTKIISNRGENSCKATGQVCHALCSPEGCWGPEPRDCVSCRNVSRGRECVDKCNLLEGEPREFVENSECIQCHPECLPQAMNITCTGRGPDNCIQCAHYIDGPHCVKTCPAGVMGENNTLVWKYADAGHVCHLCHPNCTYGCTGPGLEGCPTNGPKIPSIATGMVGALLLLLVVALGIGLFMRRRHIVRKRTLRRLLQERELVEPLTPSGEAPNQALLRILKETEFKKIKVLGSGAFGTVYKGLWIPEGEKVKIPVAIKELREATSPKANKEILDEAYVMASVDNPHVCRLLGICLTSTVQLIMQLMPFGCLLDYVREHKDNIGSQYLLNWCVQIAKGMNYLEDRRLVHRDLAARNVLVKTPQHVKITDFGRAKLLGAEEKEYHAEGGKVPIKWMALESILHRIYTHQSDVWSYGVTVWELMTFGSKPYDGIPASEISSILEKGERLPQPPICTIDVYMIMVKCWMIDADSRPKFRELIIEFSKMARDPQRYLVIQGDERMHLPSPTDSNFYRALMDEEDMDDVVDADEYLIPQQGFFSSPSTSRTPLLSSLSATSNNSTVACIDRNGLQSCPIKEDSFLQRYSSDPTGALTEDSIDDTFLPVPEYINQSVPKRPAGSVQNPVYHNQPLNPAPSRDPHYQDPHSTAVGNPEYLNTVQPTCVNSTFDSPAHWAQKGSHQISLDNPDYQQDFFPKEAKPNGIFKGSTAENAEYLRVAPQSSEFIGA
EGFR L858R, sequence (P00533 25-1210 L858R): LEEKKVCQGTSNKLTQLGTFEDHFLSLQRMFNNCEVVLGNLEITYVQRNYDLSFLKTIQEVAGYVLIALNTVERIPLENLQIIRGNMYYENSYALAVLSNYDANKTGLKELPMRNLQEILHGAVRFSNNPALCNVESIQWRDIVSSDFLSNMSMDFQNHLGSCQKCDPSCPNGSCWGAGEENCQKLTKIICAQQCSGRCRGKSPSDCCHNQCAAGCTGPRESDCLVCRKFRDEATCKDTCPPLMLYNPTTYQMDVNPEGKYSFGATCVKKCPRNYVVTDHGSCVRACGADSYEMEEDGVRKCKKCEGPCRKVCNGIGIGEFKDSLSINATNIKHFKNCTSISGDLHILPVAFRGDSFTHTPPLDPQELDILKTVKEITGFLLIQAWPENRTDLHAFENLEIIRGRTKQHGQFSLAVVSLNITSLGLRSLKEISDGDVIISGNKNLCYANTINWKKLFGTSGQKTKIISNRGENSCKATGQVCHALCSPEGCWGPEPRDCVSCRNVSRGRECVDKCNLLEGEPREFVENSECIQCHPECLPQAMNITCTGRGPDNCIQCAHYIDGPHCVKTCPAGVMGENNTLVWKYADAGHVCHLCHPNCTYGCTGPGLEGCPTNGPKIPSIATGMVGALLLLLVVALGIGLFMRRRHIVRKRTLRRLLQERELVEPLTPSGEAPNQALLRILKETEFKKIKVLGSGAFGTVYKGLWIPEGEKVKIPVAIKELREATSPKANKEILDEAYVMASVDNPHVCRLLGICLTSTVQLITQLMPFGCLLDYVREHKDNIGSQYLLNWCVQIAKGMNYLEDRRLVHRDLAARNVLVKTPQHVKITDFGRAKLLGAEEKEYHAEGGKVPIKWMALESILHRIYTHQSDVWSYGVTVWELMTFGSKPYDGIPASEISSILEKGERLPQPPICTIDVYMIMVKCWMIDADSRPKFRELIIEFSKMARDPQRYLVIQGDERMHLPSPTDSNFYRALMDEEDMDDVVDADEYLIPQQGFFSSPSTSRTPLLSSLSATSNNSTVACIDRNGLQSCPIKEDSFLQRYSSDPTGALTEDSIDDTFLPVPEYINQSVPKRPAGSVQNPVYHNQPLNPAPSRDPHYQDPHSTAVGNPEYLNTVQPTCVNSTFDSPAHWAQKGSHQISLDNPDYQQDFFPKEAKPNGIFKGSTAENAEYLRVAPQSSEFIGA
EGFR L858R/T790M, sequence (P00533 25-1210 T790M/L858R): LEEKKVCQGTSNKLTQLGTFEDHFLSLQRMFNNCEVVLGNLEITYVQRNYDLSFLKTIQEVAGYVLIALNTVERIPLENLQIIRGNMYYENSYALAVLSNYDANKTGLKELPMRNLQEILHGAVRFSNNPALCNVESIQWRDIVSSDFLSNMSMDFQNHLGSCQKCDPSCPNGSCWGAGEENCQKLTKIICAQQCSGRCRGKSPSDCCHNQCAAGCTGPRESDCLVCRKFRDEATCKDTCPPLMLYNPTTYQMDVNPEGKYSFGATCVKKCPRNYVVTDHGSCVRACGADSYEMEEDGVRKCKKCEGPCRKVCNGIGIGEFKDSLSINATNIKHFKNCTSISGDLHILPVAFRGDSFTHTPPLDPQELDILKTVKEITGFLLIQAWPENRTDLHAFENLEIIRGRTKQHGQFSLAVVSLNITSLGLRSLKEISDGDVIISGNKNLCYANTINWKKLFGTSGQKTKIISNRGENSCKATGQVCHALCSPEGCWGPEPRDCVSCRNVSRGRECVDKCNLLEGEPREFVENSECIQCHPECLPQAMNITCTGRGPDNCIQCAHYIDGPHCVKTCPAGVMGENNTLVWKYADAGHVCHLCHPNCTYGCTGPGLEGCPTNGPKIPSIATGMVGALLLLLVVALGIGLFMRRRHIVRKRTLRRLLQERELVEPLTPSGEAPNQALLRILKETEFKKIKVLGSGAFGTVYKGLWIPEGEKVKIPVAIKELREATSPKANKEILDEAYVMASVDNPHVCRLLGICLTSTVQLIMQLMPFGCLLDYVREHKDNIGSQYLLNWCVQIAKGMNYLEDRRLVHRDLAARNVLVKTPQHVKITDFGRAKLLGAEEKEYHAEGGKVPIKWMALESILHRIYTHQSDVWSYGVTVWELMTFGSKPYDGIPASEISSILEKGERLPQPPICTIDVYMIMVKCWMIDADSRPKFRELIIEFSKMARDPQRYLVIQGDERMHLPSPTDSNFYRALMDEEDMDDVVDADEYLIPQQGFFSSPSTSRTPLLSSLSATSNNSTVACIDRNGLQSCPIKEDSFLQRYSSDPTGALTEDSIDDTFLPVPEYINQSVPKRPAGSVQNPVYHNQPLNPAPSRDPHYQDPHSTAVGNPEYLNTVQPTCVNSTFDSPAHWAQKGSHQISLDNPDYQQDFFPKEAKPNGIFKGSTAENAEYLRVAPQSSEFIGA

`CN1CCC(c2ccc(-c3cc(F)c4c(=O)n(C(C(=O)Nc5nccs5)c5ncn6c5CCC6)ccc4c3)cc2)CC1` (centres unmarked) [Compound 001, 2-(6,7-Dihydro-5H-pyrrolo[1,2-c]imidazol-1-yl)-2-(8-fluoro-6-(4-(1-methylpiperidin-4-yl)phenyl)-1-oxoisoquinolin-2(1H)-yl)-N-(thiazol-2-yl)acetamide]: the figures for the GI50 in assay [1] and in assay [2] were less than 500 nM and less than 100 nM, respectively. The IC50 at EGFR L858R was less than 5 nM; on EGFR L858R/T790M it was less than 0.5 nM.

Consider `CN1CCC(c2ccc(-c3cc(F)c4c(=O)n(C(C(=O)Nc5nccs5)c5ncn6c5C[C@@H](F)C6)ccc4c3)cc2)CC1` (stereo partly drawn) [Compound 002, 2-((R)-6-Fluoro-6,7-dihydro-5H-pyrrolo[1,2-c]imidazol-1-yl)-2-(8-fluoro-6-(4-(1-methylpiperidin-4-yl)phenyl)-1-oxoisoquinolin-2(1H)-yl)-N-(thiazol-2-yl)acetamide], for which the GI50 in assay [1] and in assay [2] was less than 500 nM each time. Further, the IC50 was less than 5 nM on EGFR L858R and less than 1 nM on EGFR L858R/T790M.

Take `CN1CCC(c2ccc(-c3cc4ccn(C(C(=O)Nc5nccs5)c5ncn6c5CCC6)c(=O)c4s3)cc2)CC1` (centres unmarked) [Compound 003, 2-(6,7-Dihydro-5H-pyrrolo[1,2-c]imidazol-1-yl)-2-(2-(4-(1-methylpiperidin-4-yl)phenyl)-7-oxothieno[2,3-c]pyridin-6(7H)-yl)-N-(thiazol-2-yl)acetamide]: the GI50 in assay [1] is less than 500 nM; in assay [2] it was less than 100 nM. Moreover, the IC50 on EGFR L858R was less than 5 nM; on EGFR L858R/T790M, less than 0.5 nM.

As to `CN1CCC(c2ccc(-c3cc4ccn(C(C(=O)Nc5nccs5)c5ncn6c5C[C@@H](F)C6)c(=O)c4s3)cc2)CC1` (stereo partly drawn) [Compound 004, 2-((R)-6-Fluoro-6,7-dihydro-5H-pyrrolo[1,2-c]imidazol-1-yl)-2-(2-(4-(1-methylpiperidin-4-yl)phenyl)-7-oxothieno[2,3-c]pyridin-6(7H)-yl)-N-(thiazol-2-yl)acetamide], the GI50 was less than 5000 nM in assay [1] and less than 500 nM in assay [2]. Further, the IC50 on EGFR L858R was less than 5 nM; at EGFR L858R/T790M, less than 0.5 nM.

`CN1CCC(c2ccc(-c3ccc4ncn(C(C(=O)Nc5nccs5)c5ncn6c5CCC6)c(=O)c4c3)cc2)CC1` (centres unmarked) [Compound 005, 2-(6,7-Dihydro-5H-pyrrolo[1,2-c]imidazol-1-yl)-2-(6-(4-(1-methylpiperidin-4-yl)phenyl)-4-oxoquinazolin-3(4H)-yl)-N-(thiazol-2-yl)acetamide]: the GI50 in assay [1] is less than 500 nM; in assay [2], less than 100 nM. Also, the IC50 at EGFR L858R was less than 1 nM; at EGFR L858R/T790M, less than 0.5 nM.

On to `CN1CCC(c2ccc(-c3ccc4ncn(C(C(=O)Nc5nccs5)c5ncn6c5CCC6)c(=O)c4c3F)cc2)CC1` (centres unmarked) [Compound 006, 2-(6,7-Dihydro-5H-pyrrolo[1,2-c]imidazol-1-yl)-2-(5-fluoro-6-(4-(1-methylpiperidin-4-yl)phenyl)-4-oxoquinazolin-3(4H)-yl)-N-(thiazol-2-yl)acetamide], for which the values for the GI50 in assay [1] and in assay [2] were less than 500 nM and less than 100 nM, respectively. For the same molecule, the IC50 on EGFR L858R is less than 5 nM; at EGFR L858R/T790M, less than 0.5 nM.

Regarding `CN1CCN(c2ccc(-c3ccc4ncn(C(C(=O)Nc5nccs5)c5ncn6c5CCC6)c(=O)c4c3)cc2)CC1` (centres unmarked) [Compound 007, 2-(6,7-Dihydro-5H-pyrrolo[1,2-c]imidazol-1-yl)-2-(6-(4-(4-methylpiperazin-1-yl)phenyl)-4-oxoquinazolin-3(4H)-yl)-N-(thiazol-2-yl)acetamide], the GI50 in assay [1] and in assay [2] was less than 5000 nM each time. Further, the IC50 was more than 5 nM on EGFR L858R and less than 5 nM at EGFR L858R/T790M.

For the molecule `CN1CCC(c2ccc(-c3ccc4c(c3)C(=O)N(C(C(=O)Nc3nccs3)c3ncn5c3CCC5)CO4)cc2)CC1` (centres unmarked) [Compound 008, 2-(6,7-Dihydro-5H-pyrrolo[1,2-c]imidazol-1-yl)-2-(6-(4-(1-methylpiperidin-4-yl)phenyl)-4-oxo-2H-benzo[e][1,3]oxazin-3(4H)-yl)-N-(thiazol-2-yl)acetamide], the values for the GI50 in assay [1] and in assay [2] were less than 500 nM and less than 100 nM, respectively. For the same molecule, the results for the IC50 at EGFR L858R and at EGFR L858R/T790M were less than 5 nM and less than 0.5 nM, respectively.
